Results: PMC9083330, “An Efficient Evaluation System Accelerates α-Helical Antimicrobial Peptide Discovery and Its Application to Global Human Genome Mining” (Frontiers in Microbiology, 2022)
Converted amounts (≈) assume the structure as drawn.

Columns and labels:
[1] = tested on: Shigella dysenteriae (CMCC(B)51105); assay: MIC, broth microdilution; type: cell-based; settings: read-out: MIC, 9. S. dysenteriae (CMCC(B)51105)
[2] = tested on: mouse skin wound infected with E. coli (CMCC44103); assay: Mouse full-thickness skin wound infection and healing; type: in vivo, BALB/c mice
Method: (§1) Briefly, adult female BALB/c mice (18–22 g) were obtained from the Laboratory Animal Center of Shenyang Pharmaceutical University and performed in compliance with the guidelines of the Institutional Animal Care and Use Committee of Shenyang Pharmaceutical University. Each mouse was operated on an 8-mm in diameter round-shape wound under surgery conditions with an intraperitoneal injection of ketamine (90 mg/kg) and xylazine (10 mg/kg). The mice were randomly divided into 10 groups, including one normal group, three model groups, three treatment groups, and three positive groups (n = 10 in each group), then the wounds were infected with 40 μl (1 × 10^8 CFU/mL) of E. coli (CMCC44103) or drug-resistant E. coli (SYPB-3820) or S. aureus (CMCC26003), respectively, except for the normal group. Forty-eight hours later, the wounds of three model groups were treated with a sterile 0.85% saline solution. […] All the wounds were treated twice 1 day and observed every 24 h for 14 days. On days 1, 3, 5, 7, and 10, 100 mg of treated skin tissue was removed and homogenized in 0.9 ml of sterile 0.85% saline solution, then the samples were diluted and plated onto Luria-Bertani (LB) medium. After incubation at 37°C for 20 h, the CFUs were counted to represent the bacterial number in the wounds.

[3] = tested on: mouse skin wound infected with S. aureus (CMCC26003); assay: as above; type: in vivo, BALB/c mice
Method: as §1

[4] = tested on: mouse skin wound infected with drug-resistant E. coli (SYPB-3820); assay: as above; type: in vivo, BALB/c mice
Method: as §1

[5] = tested on: Staphylococcus aureus (CMCC26003); assay: MIC, broth microdilution; settings: CMCC26003, read-out: MIC, 1. S. aureus (CMCC26003)
[6] = tested on: Escherichia coli (CMCC44103); assay: MIC, broth microdilution; settings: CMCC44103, read-out: MIC, 5. E. coli (CMCC44103)
[7] = tested on: Klebsiella pneumoniae (CMCC46117); assay: MIC, broth microdilution; settings: CMCC46117, read-out: MIC, 6. K. pneumoniae (CMCC46117)
[8] = tested on: Escherichia coli (SYPB-3820) (multiple-resistant strain); assay: MIC, broth microdilution; settings: read-out: MIC, 7. E. coli (SYPB-3820) (multiple-resistant strain)
[9] = tested on: Acinetobacter baumannii (ACCC11038); assay: MIC, broth microdilution; settings: read-out: MIC, 8. A. baumannii (ACCC11038)
[10] = tested on: genomic DNA of E. coli (CMCC44103); assay: Peptide and DNA binding assay (gel retardation); design: species or system Escherichia coli; settings: 0.5–8 × MIC (1–16 μg/ml), 37°C, 30 min, approx. 400 ng DNA
Method: (§2) The gel retardation experiment was conducted according to the method described by [Kim et al. (2018)] for exploring the influence of AMPs on the bacterial genome. The bacterial genomic DNAs were extracted by using a Vazyme FastPure® Bacteria DNA Isolation Mini Kit (Nanjing Vazyme Biotech Co., Ltd., Nanjing, China). […] DNA treated with Penetratin (reported as cell-penetrating peptide) ([de Mello et al., 2019]) and DNA untreated with AMP were served as positive and negative control, respectively. The extent of DNA migration was measured by agarose gel electrophoresis using a gel imaging system (Beijing Sage Creation Science, Beijing, China).

[11] = tested on: genomic DNA of E. coli (SYPB-3820); assay: Peptide and DNA binding assay (gel retardation); design: species or system Escherichia coli; settings: 0.5–8 × MIC (1–16 μg/ml), 37°C, 30 min, approx. 400 ng DNA
Method: as §2

[12] = tested on: genomic DNA of S. aureus (CMCC26003); assay: Peptide and DNA binding assay (gel retardation); design: species or system Staphylococcus aureus; settings: 0.5–8 × MIC (1–16 μg/ml), 37°C, 30 min, approx. 400 ng DNA
Method: as §2

[13] = tested on: multiple-resistant Staphylococcus aureus (MRSA186); assay: MIC, broth microdilution; settings: read-out: MIC, 2. multiple-resistant S. aureus (MRSA186)

C[C@H]1COc2c(N3CCN(C)CC3)c(F)cc3c(=O)c(C(=O)O)cn1c23 [Levofloxacin]
MIC [1]: 0.06 µg/mL (≈ 0.166 µM)
Skin wound bacterial burden ([2]; day 10, E. coli (CMCC44103) infected wound, topical 100 μl at 8 × MIC twice a day, mean ± SD): (3.91 ± 2.87) × 10^3 CFU/g
Decrease of bacterial load ([2]; day 10 vs initial burden, E. coli (CMCC44103)): six
Wound healing (observation) ([2]; day 14, E. coli (CMCC44103) infected wound): basically completely healed
Skin wound bacterial burden ([3]; day 10, S. aureus (CMCC26003) infected wound, topical 100 μl at 8 × MIC twice a day, mean ± SD): (5.37 ± 2.89) × 10^3 CFU/g
Reduction of bacterial burden ([3]; day 10 vs initial burden, S. aureus (CMCC26003)): seven
Wound healing (observation) ([3]; day 14, S. aureus (CMCC26003) infected wound): basically completely healed
Skin wound bacterial burden ([4]; 10 days later, E. coli (SYPB-3820) infected wound, topical 100 μl at 8 × MIC twice a day, mean ± SD): (2.29 ± 3.78) × 10^4 CFU/g
Reduction of bacterial counts ([4]; day 10 vs initial burden, E. coli (SYPB-3820)): five
Wound healing (observation) ([4]; day 14, E. coli (SYPB-3820) infected wound): basically completely healed
MIC [5]: 0.12 µg/mL (≈ 0.332 µM)
MIC [6]: 0.03 µg/mL (≈ 0.083 µM)
MIC [7]: 0.03 µg/mL (≈ 0.083 µM)
MIC [8]: 8 µg/mL (≈ 22.1 µM)
MIC [9]: 0.06 µg/mL (≈ 0.166 µM)

Penetratin
Binding to genomic DNA (gel retardation) [10]: bound with the bacterial genomic DNA and blocked the migration
Binding to genomic DNA (gel retardation) [11]: bound with the bacterial genomic DNA and blocked the migration
Binding to genomic DNA (gel retardation) [12]: bound with the bacterial genomic DNA and blocked the migration

CN[C@H](CC(C)C)C(=O)N[C@H]1C(=O)N[C@@H](CC(N)=O)C(=O)N[C@H]2C(=O)N[C@H]3C(=O)N[C@H](C(=O)N[C@H](C(=O)O)c4cc(O)cc(O)c4-c4cc3ccc4O)[C@H](O)c3ccc(c(Cl)c3)Oc3cc2cc(c3O[C@@H]2O[C@H](CO)[C@@H](O)[C@H](O)[C@H]2O[C@H]2C[C@](C)(N)[C@H](O)[C@H](C)O2)Oc2ccc(cc2Cl)[C@H]1O [Vancomycin]
MIC [13]: 1 µg/mL (≈ 0.69 µM)
